“And” between values parts separate entries of the source, which are not always exact repeats. Equal entries are not always repeated. Where no end group is shown, it is not given here. The star is where a group is joined. FITC = O=C1OC2(c3ccc(O)cc3Oc3cc(O)ccc32)c2ccc(NC(=S)*)cc21; Ahx = NCCCCCC(=O)O
Legend:
NIH3T3 cells = assay: Microarray transcriptional changes; assay type: cell-based, mouse; conditions: NIH3T3; 20μM for 24 h
Protocol: Total RNA of the treated cells was extracted using TRIzol (Invitrogen) and purified with RNeasy chromatography (Qiagen). Cy3-labeled RNA (0.6 μg) from each condition was hybridized to Agilent Mouse 8x60K. Data were processed using the oligo package and normalized using Robust Multiarray Average (RMA) method. […] Pathway analysis was performed using the STRING database ([…]).

rd10 mice = assay: rd10 mice, single intravitreal injection, retina histology; assay type: in vivo, mouse; conditions: rd10 mice; individual values and Mean CA77
Protocol: C57BL/6 J mice wild-type (WT) and homozygous for the Pde6 mutation (rd10 mouse model of retinal degeneration) were obtained from The Jackson Laboratory and experiments were performed at the age indicated in each part of the study. C57BL/6 KFERQ-Dendra mice were generated by back-crossing FVB KFERQ-Dendra mice with wild-type C57BL/6 mice for 8 generations. Both male and female animals were used in this study in equally distribution groups. However, results from both sexes were pooled, because of absence of significant differences in any of the parameters analyzed after statistical analysis with a mixed model of two-way ANOVA sex and treatment as independent variables and the corresponding measure as dependent variable. All animals were housed in a barrier-controlled facility (19–23 °C 30–60% relative humidity; 12 h light/dark cycle) with ad libitum access to standard chow pellets (protein 19 gm%/carbohydrate 67 gm%/fat 4 gm%) and water. For animal administration of CA compounds, a formula containing 30% PEG 400 (Sigma, #8.0745), 65% of 5% glucose solution, 5% Tween 80 (Sigma, #P1754) was used to dissolve them. CA compounds were prepared freshly by adding 5% DMSO and sonicating for 1 h. Treatment of KFERQ-Dendra mice with the CA compounds was done at 4 months of age by i.p. daily injection of 30 mg/kg bw or vehicle for three consecutive days and tissues collected 6 h after the last injection. In the case of rd10 mice, animals were daily injected from P18 to P25 with CA77 (40 mg/kg bw). In the case of intravitreal administration, a single intravitreal injection was applied at P18 with CA77 (40 µM) in DMSO/PBS and the contralateral eye was injected with PBS and DMSO at same concentration. At P26, mice were sacrificed and eyes fixed overnight with 4% PFA (Sigma, #P6148) in PBS at 4 °C for immunofluorescence or retinas dissected and immediately frozen for biochemistry. Distribution of animals in the vehicle or treatment group was done randomly. ICR (CD-1) outbred 3 months old male mice from ENVIGO were used for the pharmacokinetic studies (see pharmacokinetic section for housing and handling details). All animal studies and procedures complied with ethical regulations, were performed in accordance with the European Union guidelines and the ARVO Statement for the Use of Animals in Ophthalmic and Vision Research and were approved by the Institutional Animal Care and Use Committee at the Albert Einstein College of Medicine, the CSIC Bioetica Comite and approved by the Comunidad de Madrid, PROEX232/17.
12 μm cryosections and immunofluorescence in retinal sections[10] after orienting retinas with a dorsal mark, so comparisons were performed taking into account the precise retinal area. Primary antibodies used in this study were visual (rod) arrestin, cone arrestin, Opsin R/G, transducin, GFAP, N-CoR1. Sections were visualized by confocal microscopy (TCS SP5; Leica Microsystems).
For ONL thickness quantification, DAPI images were taken at 40X in a fluorescence microscope Multidimensional system Leica AF6000 LX coupled to DMI600B microscope and Hamamatsu CCD 9100-O2 camera. At least two sections per animal were analyzed, preferably central sections. Eight images per retina equally distributed along the retina were acquired. Three measures were taken per image and ratio ONL/INL quantified with ImageJ tools. Leica LAS-X (3.7.4.23463) was used for image acquisition and ImageJ (v.2.1.0) was used for image processing. For OS length measures, fixed positions common to all pictures were considered and OS length was measured using ImageJ straight line tool.
Eyes were enucleated, put in a plate with cold PBS and an incision was made under the microscope to let the fixative enter into the eye. […]

N-CoR1 and RARα = molecular target: T1, N-CoR1 and RARα (Mus musculus, UniProt P11416); assay: Streptavidin pulldown of biotin-CA, immunoblot for N-CoR1 and RARα; assay type: cell-based; conditions: NIH3T3, 10 μM for 24 h
T1 construct: endogenous in cells; host or cells: NIH3T3
T1 sequence (P11416 whole entry): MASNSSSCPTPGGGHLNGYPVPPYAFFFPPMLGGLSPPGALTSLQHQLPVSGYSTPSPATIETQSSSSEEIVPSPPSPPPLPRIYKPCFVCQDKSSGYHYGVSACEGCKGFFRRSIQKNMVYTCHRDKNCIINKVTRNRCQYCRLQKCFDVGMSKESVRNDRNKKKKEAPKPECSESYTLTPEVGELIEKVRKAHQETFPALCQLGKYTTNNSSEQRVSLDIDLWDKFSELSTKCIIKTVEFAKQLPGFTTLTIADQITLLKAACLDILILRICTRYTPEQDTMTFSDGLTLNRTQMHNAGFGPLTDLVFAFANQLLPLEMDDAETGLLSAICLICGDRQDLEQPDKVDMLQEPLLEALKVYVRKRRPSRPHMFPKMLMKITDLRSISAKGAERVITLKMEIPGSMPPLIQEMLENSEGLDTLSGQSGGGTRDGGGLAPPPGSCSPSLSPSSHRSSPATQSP
T1 sequence (Q60974 whole entry partner): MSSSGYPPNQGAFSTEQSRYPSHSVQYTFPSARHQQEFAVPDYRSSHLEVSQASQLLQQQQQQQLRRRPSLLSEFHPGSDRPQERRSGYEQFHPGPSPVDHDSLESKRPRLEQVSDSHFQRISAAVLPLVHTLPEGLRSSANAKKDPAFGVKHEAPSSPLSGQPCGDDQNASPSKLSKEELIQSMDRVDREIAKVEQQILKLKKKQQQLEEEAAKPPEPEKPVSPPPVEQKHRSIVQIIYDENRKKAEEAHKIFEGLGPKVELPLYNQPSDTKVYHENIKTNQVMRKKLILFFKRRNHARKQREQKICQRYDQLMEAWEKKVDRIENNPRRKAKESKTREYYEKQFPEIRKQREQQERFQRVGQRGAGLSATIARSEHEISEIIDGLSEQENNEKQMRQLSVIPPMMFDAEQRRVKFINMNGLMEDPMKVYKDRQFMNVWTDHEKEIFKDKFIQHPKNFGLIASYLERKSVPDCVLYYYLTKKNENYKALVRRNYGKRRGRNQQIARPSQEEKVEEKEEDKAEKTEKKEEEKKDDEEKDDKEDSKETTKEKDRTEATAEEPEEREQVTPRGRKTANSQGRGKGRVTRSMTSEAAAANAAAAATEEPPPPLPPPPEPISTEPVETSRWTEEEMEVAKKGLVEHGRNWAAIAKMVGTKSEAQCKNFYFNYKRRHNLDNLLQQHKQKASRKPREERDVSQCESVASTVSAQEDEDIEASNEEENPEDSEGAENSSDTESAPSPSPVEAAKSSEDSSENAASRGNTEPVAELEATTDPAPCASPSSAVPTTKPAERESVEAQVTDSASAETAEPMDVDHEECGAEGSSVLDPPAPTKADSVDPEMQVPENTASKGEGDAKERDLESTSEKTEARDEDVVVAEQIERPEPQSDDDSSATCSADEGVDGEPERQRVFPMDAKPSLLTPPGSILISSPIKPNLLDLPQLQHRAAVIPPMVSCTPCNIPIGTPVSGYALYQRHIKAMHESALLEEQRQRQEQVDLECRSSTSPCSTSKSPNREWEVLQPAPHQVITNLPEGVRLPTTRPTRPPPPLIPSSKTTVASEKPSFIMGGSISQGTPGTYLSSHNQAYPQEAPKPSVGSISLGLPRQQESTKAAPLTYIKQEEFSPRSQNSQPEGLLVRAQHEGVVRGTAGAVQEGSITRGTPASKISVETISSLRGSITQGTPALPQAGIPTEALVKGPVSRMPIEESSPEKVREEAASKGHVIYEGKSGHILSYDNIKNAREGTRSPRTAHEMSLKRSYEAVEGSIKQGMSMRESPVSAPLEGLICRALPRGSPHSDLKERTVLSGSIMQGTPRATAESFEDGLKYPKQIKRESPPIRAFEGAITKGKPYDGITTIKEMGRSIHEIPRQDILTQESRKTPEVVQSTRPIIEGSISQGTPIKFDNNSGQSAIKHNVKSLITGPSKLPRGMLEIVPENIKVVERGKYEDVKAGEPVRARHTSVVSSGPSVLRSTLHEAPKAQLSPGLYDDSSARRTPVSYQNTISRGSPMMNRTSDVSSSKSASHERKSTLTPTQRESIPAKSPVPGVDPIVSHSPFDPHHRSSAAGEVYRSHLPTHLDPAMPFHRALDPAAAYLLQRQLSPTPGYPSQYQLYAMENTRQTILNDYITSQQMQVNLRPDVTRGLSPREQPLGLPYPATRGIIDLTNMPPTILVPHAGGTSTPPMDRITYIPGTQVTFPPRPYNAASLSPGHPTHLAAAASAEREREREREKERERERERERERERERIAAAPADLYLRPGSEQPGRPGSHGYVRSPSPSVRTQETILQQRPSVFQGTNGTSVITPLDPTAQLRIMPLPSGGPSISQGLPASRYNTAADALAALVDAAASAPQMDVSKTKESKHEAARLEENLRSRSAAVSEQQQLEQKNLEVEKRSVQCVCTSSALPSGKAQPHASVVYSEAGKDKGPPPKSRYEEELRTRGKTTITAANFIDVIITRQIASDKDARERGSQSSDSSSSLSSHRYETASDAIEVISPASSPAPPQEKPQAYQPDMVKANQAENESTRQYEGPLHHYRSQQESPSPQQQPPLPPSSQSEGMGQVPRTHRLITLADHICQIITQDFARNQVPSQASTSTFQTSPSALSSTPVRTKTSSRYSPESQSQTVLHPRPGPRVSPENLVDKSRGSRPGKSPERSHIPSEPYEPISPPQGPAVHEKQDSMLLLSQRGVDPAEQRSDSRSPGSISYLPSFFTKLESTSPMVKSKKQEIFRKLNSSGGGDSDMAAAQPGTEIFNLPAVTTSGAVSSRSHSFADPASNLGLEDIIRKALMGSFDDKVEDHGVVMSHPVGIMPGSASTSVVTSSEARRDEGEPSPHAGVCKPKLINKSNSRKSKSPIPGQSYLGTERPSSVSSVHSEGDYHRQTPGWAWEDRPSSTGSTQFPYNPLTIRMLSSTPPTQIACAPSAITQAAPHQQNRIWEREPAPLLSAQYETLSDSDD

[1] = test system: NIH3T3 cells stably expressing the mCherry-GFP-LC3 reporter; assay: Macroautophagy activity, mCherry-GFP-LC3 reporter; assay type: cell-based, mouse
Protocol: Cells were transduced with a lentiviral vector expressing mCherry-GFP-LC3[35], fixed and flux determined as the conversion of dual fluorescence puncta (autophagosomes) into only red fluorescent puncta (autolysosomes). Flux was also measured by immunoblot for LC3 in cells incubated for 6 h with 20 mM NH4Cl/100 μM leupeptin, by discounting the intensity of LC3 in non-treated cells from that in cells treated with the inhibitors.

[2] = molecular target: T2, ligand binding domain (LBD) of the human RARα (residues 176-421) (human, UniProt P10276 176-421); assay: fluorescence polarisation; FITC-N-CoR1 (5 nM) with serial two-fold dilutions of RARα LBD from 10 uM, without or with small molecules (10 uM: BMS, CA39, CA77); 20 mM Tris-HCl pH 7.5, 150 mM NaCl, 1 mM EDTA, 5 mM DTT, 10% glycerol; read at 30 min; conditions: both partners purified
T2 construct: also called RARα LBD; retinoic acid receptor alpha; source: E. coli BL21(DE3) RIL, purified (Ni-NTA, ULP1 cleavage, subtractive Ni-NTA, Superdex 200); not shown: His6-SUMO, N-terminal, cleaved
T2 sequence (looked up): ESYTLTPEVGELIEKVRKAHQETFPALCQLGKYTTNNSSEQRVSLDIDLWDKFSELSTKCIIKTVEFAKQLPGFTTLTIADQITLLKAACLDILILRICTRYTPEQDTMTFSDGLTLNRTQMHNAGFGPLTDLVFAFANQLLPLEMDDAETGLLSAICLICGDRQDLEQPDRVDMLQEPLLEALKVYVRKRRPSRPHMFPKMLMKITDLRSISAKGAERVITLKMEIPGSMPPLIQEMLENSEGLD

[3] = c0 = 2 (axis unlabelled; ANOVA calls row factor Time)

Molecule: CC1(C)CC=C(c2cnc3ccccc3c2)c2cc(C(=O)Nc3ccc(C(=O)O)cc3)ccc21 [BMS614, reference compound]
- changes in the transcriptome (NIH3T3 cells): marked changes in the transcriptome

Molecule: CC(=O)Nc1ccc(C2=Nc3ccc(Cl)cc3OC2)cc1 [CA 77]
- Fig. 7a, retinal measurement by eccentricity, eccentricity 1 (rd10 mice): 0.2752 and 0.2828 and 0.2675 and 0.4954 and 0.393 and 0.3603 and 0.3938
- Fig. 7a, retinal measurement by eccentricity, eccentricity 2 (rd10 mice): 0.3254 and 0.2696 and 0.3495 and 0.2864 and 0.4558 and 0.3792 and 0.723
- Fig. 7a, retinal measurement by eccentricity, eccentricity 3 (rd10 mice): 0.3333 and 0.3595 and 0.4443 and 0.4969 and 0.8558 and 0.7642 and 0.8417
- Fig. 7a, retinal measurement by eccentricity, eccentricity 4 (rd10 mice): 0.6989 and 0.5535 and 0.938 and 1.0799 and 0.9103 and 0.9911 and 0.7623
- Fig. 7a, retinal measurement by eccentricity, eccentricity -1 (rd10 mice): 0.7616 and 0.2157 and 0.1911 and 0.3575 and 0.223 and 0.305
- Fig. 7a, retinal measurement by eccentricity, eccentricity -2 (rd10 mice): 0.2825 and 0.2446 and 0.25 and 0.4552 and 0.7496 and 0.1825 and 0.2782
- Fig. 7a, retinal measurement by eccentricity, eccentricity -3 (rd10 mice): 0.4178 and 0.4298 and 0.7568 and 0.9291 and 0.9244 and 0.276 and 0.3979

Molecule: O=C(CCCCC1SCC2NC(=O)NC21)NCCCOCCOCCOCCCNC(=O)c1ccc(C2=Nc3ccc(Cl)cc3OC2)cc1 (stereo not shown) [biotinylated CA compound]
- co-immunoprecipitation of cellular RARα and N-CoR1 (N-CoR1 and RARα): could be co-immunoprecipitated

Molecule: CO[C@H]1C[C@@H]2CC[C@@H](C)[C@@](O)(O2)C(=O)C(=O)N2CCCC[C@H]2C(=O)O[C@H]([C@H](C)C[C@@H]2CC[C@@H](O)[C@H](OC)C2)CC(=O)[C@H](C)/C=C(\C)[C@@H](O)[C@@H](OC)C(=O)[C@H](C)C[C@H](C)/C=C/C=C/C=C/1C [rapamycin, reference compound]
- APG (Fig. S3e) [1, 3]: 1.605
- AUT (Fig. S3e) [1, 3]: 1.965
- AV (Fig. S3e) [1, 3]: 3.57
- APG (Fig. S3e) ([1]; c0 = 5 (axis unlabelled)): 2.415
- AUT (Fig. S3e) ([1]; c0 = 5 (axis unlabelled)): 2.129
- AV (Fig. S3e) ([1]; c0 = 5 (axis unlabelled)): 4.544
- APG (Fig. S3e) ([1]; c0 = 10 (axis unlabelled)): 3.3128
- AUT (Fig. S3e) ([1]; c0 = 10 (axis unlabelled)): 3.752
- AV (Fig. S3e) ([1]; c0 = 10 (axis unlabelled)): 7.064
- APG (Fig. S3e) ([1]; c0 = 20 (axis unlabelled)): 5.184
- AUT (Fig. S3e) ([1]; c0 = 20 (axis unlabelled)): 4.731
- AV (Fig. S3e) ([1]; c0 = 20 (axis unlabelled)): 9.915
- APG (Fig. S3e) ([1]; c0 = 30 (axis unlabelled)): 4.9183
- AUT (Fig. S3e) ([1]; c0 = 30 (axis unlabelled)): 11.4046
- AV (Fig. S3e) ([1]; c0 = 30 (axis unlabelled)): 16.3229

B1: fluorescein-tagged peptide of N-CoR1, FITC-Ahx-RLITLADHICQIITQDFAR (peptide)
peptide: {FITC-Ahx}-RLITLADHICQIITQDFAR
notes: peptide of nuclear receptor corepressor 1 (N-CoR1); also called FITC-N-CoR1; N-CoR1 peptide; source: synthetic peptide; bought: Genscript, purity > 95%
- binding result [2]: binds

Reference: publication PMC9304322, “Targeting retinoic acid receptor alpha-corepressor interaction activates chaperone-mediated autophagy and protects against retinal degeneration” (Nature Communications, 2022)
